Measurements taken from PMC8922279, “Identification of β-Lactams Active against Mycobacterium tuberculosis by a Consortium of Pharmaceutical Companies and Academic Institutions” (ACS Infectious Diseases, 2022).
Values after ≈ are worked out from the molar mass of the structure shown. Like-named read-outs stand apart in the source and are kept apart here.

Experiments:
[1] = system: C. albicans; experiment: Microbial spectrum, C. albicans; type: cell-based, Candida albicans
[2] = system: plasma proteins; details: 4 h, 2 μM, pH 7.4
[3] = system: Mtb H37Rv; experiment: MIC90 against nonreplicating (NR, 4-stress) Mtb H37Rv, with or without clavulanate; type: cell-based, Mycobacterium tuberculosis; details: 4-stress nonreplicating, Table S4
[4] = in vitro; details: human
[5] = system: E. coli; experiment: Microbial spectrum, E. coli; type: cell-based, Escherichia coli
[6] = in vitro; details: cynomolgus monkey, plasma, pH 7.4
[7] = system: P. aeruginosa; experiment: Microbial spectrum, P. aeruginosa; type: cell-based, Pseudomonas aeruginosa
[8] = in vivo; details: female, 129sv DHP-1 knockout, mouse, sc, 50 mg/kg
[9] = in vitro; details: beagle, dog, plasma, pH 7.4
[10] = in vitro; details: CD-1, mouse, plasma, pH 7.4, % bound to plasma
[11] = target: CYP3A4 (Homo sapiens, UniProt P08684); experiment: CYP3A4 inhibition
[12] = system: Mtb H37Rv; experiment: MIC90 against replicating (R) Mtb H37Rv, with or without clavulanate; type: cell-based, Mycobacterium tuberculosis; details: Table S4
[13] = Metabolic stability, human; type: in vitro ADME
Procedure: Metabolic stability and induction of human hepatocytes were performed as previously described.[71]

[14] = system: plasma proteins; details: 4 h, 2 μM, pH 7.4; remark: listed apart in the source
[15] = simulated gi fluid, 10 μM, pH 6.5
[16] = in vitro; details: male, CD-1, mouse, plasma, Plasma stability % Remaining
[17] = system: WT Mtb H37Rv; experiment: Colony-forming unit (CFU) assay, replicating WT Mtb H37Rv; type: cell-based, Mycobacterium tuberculosis
[18] = system: Caco-2 cells
[19] = target: T1, hERG (Homo sapiens, UniProt Q12809); experiment: hERG channel measurements (QPatch automated patch clamp); type: cell-based; details: HEK293 cells stably transfected with hERG (inducible), pH 7.4
T1 construct: expressed in transfected cells
Procedure: The potency of the compounds in inhibiting the human ERG potassium channel (hERG) tail current was assessed in a recombinant HEK293 cell line stably transfected with hERG cDNA under an inducible promoter using the rapid ICE (rapid ion channel electrophysiology) assay. Rapid ICE is an automated patch clamp assay utilizing a QPatch HTX system (Sophion Bioscience A/S). Briefly, inducible HEK hERG cells were cultivated in minimum essential medium supplemented with 10% FBS, 1% nonessential amino acids, 1% sodium pyruvate, 2 mM L-glutamine, 15 μg/mL blasticidin, and 100 μg/mL hygromycin. hERG channel induction was obtained by adding 10 μg/mL tetracycline for 24, 48, or 72 h before recordings. On the day of the experiment, cells were detached with TrypLE and prepared to be loaded on the instrument. Cells were resuspended in 7 mL of serum-free media containing 25 mM Hepes and soybean trypsin inhibitor and immediately placed in the cell storage tank of the machine. […] The voltage protocol was run and recorded continuously during the experiment. […] The average of tail current amplitude values recorded from four sequential voltage pulses was used to calculate for each cell the effect of the test substance by calculating the residual current (% control) compared with vehicle pretreatment. […]

[20] = physchem; details: simulated gi fluid, pH 6.5, FaSSIF Stability, % remaining
[21] = female, 129sv DHP-1 knockout, mouse, in vivo
[22] = in vitro; details: beagle, dog, plasma
[23] = 300 mg/kg sc, uninfected DHP-1 mice
[24] = Metabolic stability, mouse; type: in vitro ADME

T1 sequence (Q12809 whole entry): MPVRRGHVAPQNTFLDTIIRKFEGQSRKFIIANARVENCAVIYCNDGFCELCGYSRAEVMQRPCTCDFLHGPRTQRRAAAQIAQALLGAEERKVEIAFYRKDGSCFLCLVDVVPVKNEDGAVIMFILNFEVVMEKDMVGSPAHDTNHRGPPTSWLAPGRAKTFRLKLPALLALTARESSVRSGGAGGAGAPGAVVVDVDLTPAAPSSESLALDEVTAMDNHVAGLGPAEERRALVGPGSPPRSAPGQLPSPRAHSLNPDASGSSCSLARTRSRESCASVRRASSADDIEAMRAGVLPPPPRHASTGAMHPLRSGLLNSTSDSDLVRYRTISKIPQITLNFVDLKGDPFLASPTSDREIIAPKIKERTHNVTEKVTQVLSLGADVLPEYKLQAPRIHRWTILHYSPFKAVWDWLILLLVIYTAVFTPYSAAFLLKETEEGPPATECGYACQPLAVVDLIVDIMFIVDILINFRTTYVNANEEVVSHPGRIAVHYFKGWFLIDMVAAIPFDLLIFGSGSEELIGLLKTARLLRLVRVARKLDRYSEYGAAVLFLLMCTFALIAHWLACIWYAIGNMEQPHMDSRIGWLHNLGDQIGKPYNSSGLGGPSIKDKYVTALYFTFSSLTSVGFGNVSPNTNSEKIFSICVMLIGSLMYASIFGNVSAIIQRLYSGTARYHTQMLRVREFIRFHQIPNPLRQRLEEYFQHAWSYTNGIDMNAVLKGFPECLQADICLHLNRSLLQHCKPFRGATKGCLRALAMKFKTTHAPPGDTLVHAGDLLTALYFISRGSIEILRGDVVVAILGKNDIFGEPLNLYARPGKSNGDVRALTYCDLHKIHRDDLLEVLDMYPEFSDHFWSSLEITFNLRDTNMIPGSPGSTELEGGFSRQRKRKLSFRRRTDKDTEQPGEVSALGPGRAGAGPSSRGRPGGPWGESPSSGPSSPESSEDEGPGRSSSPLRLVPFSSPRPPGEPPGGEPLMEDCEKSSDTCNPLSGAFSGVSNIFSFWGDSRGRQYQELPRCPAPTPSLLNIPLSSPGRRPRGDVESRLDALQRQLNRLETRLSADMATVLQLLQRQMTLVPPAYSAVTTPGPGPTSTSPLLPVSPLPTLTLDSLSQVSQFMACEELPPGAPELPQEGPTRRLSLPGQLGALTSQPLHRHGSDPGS
CYP3A4, sequence (P08684 whole entry, species assumed): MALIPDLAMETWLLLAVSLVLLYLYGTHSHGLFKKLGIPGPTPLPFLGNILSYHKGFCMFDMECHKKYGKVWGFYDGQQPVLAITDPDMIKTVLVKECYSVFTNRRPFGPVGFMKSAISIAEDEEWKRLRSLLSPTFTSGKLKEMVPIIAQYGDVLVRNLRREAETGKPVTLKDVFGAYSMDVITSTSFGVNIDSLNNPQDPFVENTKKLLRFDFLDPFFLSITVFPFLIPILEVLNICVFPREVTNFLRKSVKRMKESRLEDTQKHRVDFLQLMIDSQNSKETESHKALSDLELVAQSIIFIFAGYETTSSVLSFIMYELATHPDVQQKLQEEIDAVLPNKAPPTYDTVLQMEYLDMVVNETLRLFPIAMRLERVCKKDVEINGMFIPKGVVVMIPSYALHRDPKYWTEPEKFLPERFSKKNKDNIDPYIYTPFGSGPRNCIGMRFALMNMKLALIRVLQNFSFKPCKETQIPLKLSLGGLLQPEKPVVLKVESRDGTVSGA

Compound: O=C(Cc1ccc(C2=NCCN2)cc1)N[C@@H]1C(=O)N2C(C(=O)O)=C(CSc3nncs3)CS[C@H]12 [TBBL-0000316]
- MIC90 ([1]; Candida albicans, C. albicans): > 100 µM
- C.albicans R (MIC90) ([1]; no clavulanate, Table S4): > 100 µM
- % bound to plasma, Human [2]: 38%
- Mtb H37Rv NR + CLAV (MIC90) ([3]; clavulanate 4 μg/mL): > 100 µM
- Mtb H37Rv NR (MIC90) ([3]; no clavulanate): > 100 µM
- Papp A→B at 120 min, 3 μM ([4]; Caco-2, pH 7.4): 0.31 ×10⁻⁶ cm/s
- Papp B→A at 120 min, 3 μM ([4]; Caco-2, pH 7.4): 0.32 ×10⁻⁶ cm/s
- Papp at 120 min, 3 µM ([4]; Caco-2, pH 7.4): 0.3 ×10⁻⁶ cm/s
- efflux ratio at 120 min, 3 μM ([4]; Caco-2, pH 7.4): 1.06
- recovery at 120 min, 3 μM ([4]; Caco-2, pH 7.4, Caco-2 Mean Recovery % A to B): 104%
- recovery at 120 min, 3 μM ([4]; Caco-2, pH 7.4, Caco-2 Mean Recovery % B to A): 110%
- MIC90 ([5]; Escherichia coli, E. coli): 31.8 µM (≈ 16.4 µg/mL)
- E.coli R + CLAV (MIC90) ([5]; clavulanate 4 μg/mL, Table S4): 31.8 µM
- fraction unbound at 4 h, 2 μM [6]: 0.335
- MIC90 ([7]; Pseudomonas aeruginosa, P. aeruginosa): > 100 µM
- P.aeruginosa R + CLAV (MIC90) ([7]; clavulanate 4 μg/mL, Table S4): > 100 µM
- AUC(0-t) [8]: 23700 ng·h/mL
- Cmax [8]: 17500 ng/mL
- Tmax [8]: 30 min
- fraction unbound at 4 h, 2 μM [9]: 0.973
- fraction unbound at 4 h, 2 μM [10]: 0.817
- IC50 [11]: > 25 µM
- Mtb H37Rv R + CLAV (MIC90) ([12]; clavulanate 4 μg/mL): 0.5 µM
- Mtb H37Rv R (MIC90) ([12]; no clavulanate): 44.7 µM
- metabolic stability [13]: 5.4 μL/min/mg protein
- metabolic stability 1/2 life [13]: 256 min
- % bound to plasma, SD Rat [14]: 62%
- FaSSIF Stability, % remaining, 6h ([15]; 6 h): 95%
- FaSSIF Stability, % remaining, 24h ([15]; 24 h): 84%
- remaining at 2 h, 2 μM [16]: 88.5%
- reduction in CFU ([17]; daily dosing for 5 days with 4 μg/mL clavulanate, at ≥1 μM): 3–4 log10
- reduction in CFU ([17]; single dose at 10 μM, one-week exposure, 4 μg/mL clavulanate): 3.5 log10
- Caco-2 Rank Papp [18]: Low
- Efflux Transporter Substrate [18]: Poor or no
- IC50 at 5 min [19]: > 50 µM
- remaining at 6 h, 10 μM ([20]; 6h): 94.7%
- remaining at 24 h, 10 μM ([20]; 24h): 84.2%
- Tlast [21]: 6.0 h
- remaining at 2 h, 2 μM [22]: 77.3%
- Tlast [23]: 2.0 to 4.0 h
- metabolic stability [24]: 1.1 μL/min/mg protein
- metabolic stability 1/2 life [24]: 1300 min
